Several values for one entry are separate records, joined by “and”; a condition that tells them apart may be missing. Equal values may be shown once.
Experiments:
[1] = cited from earlier work; for median trough concentration in human PBMCs: reviewer comment, 25mg TAF dose ref 12
[2] = for median concentration in PBMCs during the entire treatment period: eART + VES group; for median (range) concentration in PBMCs, period of full adherence / median (range) concentration in PBMCs, period of suboptimal adherence: eART group; for median (range) concentration in PBMCs, period of full adherence: months 0–3.5, 24 h post-dosing, oral FTC/TAF; for median (range) concentration in PBMCs, period of suboptimal adherence: months 3.5 to 6
Procedure: (§1) RT-SHIV was selected for the study since it contains the HIVHXBc2 RT that is sensitive to RPV. RT-SHIV was obtained through the NIH AIDS Reagent Program, Division of AIDS, NIAID, NIH[17]–[19]. The stock was maintained in liquid nitrogen in individual 1 mL aliquots until use. […] CAB LA and RPV LA were obtained from ViiV Healthcare and Janssen, respectively. […] CAB LA (50 mg/kg) and RPV LA (200 mg/kg) were given intramuscularly once a month[27],[45]. The macaque used in the terminal PK study received CAB LA (50 mg/kg) and RPV LA (200 mg/kg) from Cabenuva®.
(§2) PBMCs were isolated from blood collected in BD Vacutainer® CPT™ Sodium Citrate Cell Preparation Tubes, and red blood cells were lysed with BioLegend RBC lysis buffer. Cell counts and viability were determined using a Guava Cell Counter and Cytosoft data acquisition and analysis software (version 6.02; Millipore Billerica, MA) or a Countess (Invitrogen). Three million viable cells were pelleted, washed with 1 mL of physiological saline, and resuspended in 500 µl ice-cold 80% methanol. Samples were vortexed for 1 min and immediately frozen at − 70 °C. Prior to analysis, cellular debris was pelleted, and supernatants were transferred to new tubes. Supernatants were dried down and reconstituted in 100 μl of 50 mM ammonium acetate buffer (pH 7.0), then centrifuged at 17,000 × g to remove insoluble particulates. […] Calibration curves were generated from serially diluted standards over the range from 0.25 to 10 nM.

[3] = Intracellular TFV-DP and FTC-TP in lymph node mononuclear cells and rectal tissues; conditions: lymph node mononuclear cells from axillary or inguinal lymph nodes
[4] = no reference given; cited from earlier work
[5] = set-up: method as in Letendre; conditions: 7-10 days after injection ref Letendre; cited from earlier work
[6] = in vivo; conditions: female, rhesus monkey
Procedure: as §1
(§3) A cocktail of methanol containing internal standards was added to precipitate proteins. After a brief centrifugation and removal of protein precipitates, the supernatant was evaporated to near dryness and re-suspended with mobile phase A. An aqueous-acetonitrile mobile-phase gradient was used to elute the drugs from a C18 column (100*1 mm, Imtakt) and into the analyzer. Drug concentrations were calculated from a standard curve with a range of 0.5–2000 ng/mL using Analyst software. […] Plasma concentrations of CAB were measured weekly. Plasma concentrations of RPV were measured 4 (9 observations), 2 (2 observations), or 3 (2 observations) weeks after the previous injection. The concentrations of RPV in plasma, CSF, and tissues and the concentrations of CAB in CSF were measured at the Clinical Pharmacology and Analytical Chemistry (CPAC) Laboratory, University of North Carolina Center for AIDS Research. The LOQ for RPV in plasma is 1 ng/mL.

[7] = CAB and RPV concentrations in macaque plasma; type: in vivo, Rhesus macaques; conditions: for median plasma levels during the treatment phase: macaques, monthly IM CAB LA 50 mg/kg and RPV LA 200 mg/kg; for plasma concentration, individual macaques: matched to CSF samples; for concentration at 4 weeks: matched to CSF: ~ 6 months of treatment, 4 weeks after the previous CAB LA/RPV LA injection, read-out: Plasma, median (range)
Procedure: Plasma concentrations of CAB were measured weekly.

[8] = Drug concentrations in cerebrospinal fluid (CSF); type: in vivo, Rhesus macaques; conditions: for Kp at 4 weeks: CSF and plasma, read-out: CSF-to-plasma ratio; for concentration at 4 weeks: CSF
Procedure: as §3

[9] = cited from earlier work; for plasma levels in humans: 400 mg of CAB LA or 600 mg of RPV LA every month for 48 weeks ref 21; for apparent terminal elimination half-life: humans, single intramuscular injection ref 16
[10] = no reference given; cited from earlier work; remark: listed apart in the source
[11] = Extracellular TFV, FTC, CAB and RPV in rectal tissue homogenates; type: in vivo, Rhesus macaques; conditions: collected after 1 to 3 months of ART
Procedure: as §3

[12] = rhesus monkey, in vivo
[13] = system: reverse transcriptase; conditions: Rectal
Procedure: as §2

[14] = Tissue concentration, Axillary lymph nodes
[15] = Tissue concentration, Basal ganglia
[16] = Tissue concentration, Cerebellum
[17] = Tissue concentration, Cervical lymph nodes
[18] = Tissue concentration, Iliac lymph nodes
[19] = Tissue concentration, Inguinal lymph nodes
[20] = Tissue concentration, Mesenteric lymph nodes
[21] = Tissue concentration, Spinal cord
[22] = median concentration in brain tissues
[23] = median concentration in lymphoid tissues
[24] = median concentration in the GI tract
[25] = rhesus monkey, plasma, intramuscular
[26] = rhesus monkey, intramuscular, 4 weeks after dosing (author rebuttal), read-out: macaque CSF values, approximate
[27] = rhesus monkey, other: oral (FTC) and intramuscular (CAB LA), ~ 6 months of treatment, 4 weeks after the previous CAB LA/RPV LA injection, read-out: CSF, median (range)
[28] = ~ 6 months of treatment, 4 weeks after the previous CAB LA/RPV LA injection

## CC(C)OC(=O)[C@H](C)N[P@](=O)(CO[C@H](C)Cn1cnc2c(N)ncnc21)Oc1ccccc1 [TAF, tenofovir alafenamide]
[1]
  fold higher concentrations of TFV-DP in lymphoid tissues and PBMCs over TDF: ~ 6

## CC(Cn1cnc2c(N)ncnc21)OCP(=O)(O)OP(=O)(O)OP(=O)(O)O (stereo in doubt) [TFV-DP, tenofovir diphosphate]
[2]; comparison with ref 10
  fold higher concentrations in PBMCs and lymphoid tissues than achieved with TDF: about 10
[2]
  median concentration in PBMCs during the entire treatment period: 1162 fmols/10^6 PBMCs
  median (range) concentration in PBMCs, period of full adherence: 1753 (275–2809) fmols/10^6 PBMCs
  median (range) concentration in PBMCs, period of suboptimal adherence: 329 (63–1688) fmols/10^6 PBMCs
[2]; full adherence vs humans treated with 25 mg of TAF
  times higher in PBMCs than in humans: about 3.2
[3]
  Lymph nodes, median (range): 367 (142–620) fmol/10^6 cells
[1]
  median trough concentration in human PBMCs: 523 fmol/10^6 cells

## C[C@H]1CO[C@@H]2Cn3cc(C(=O)NCc4ccc(F)cc4F)c(=O)c(O)c3C(=O)N12 [CAB, cabotegravir]
[4]
  protein-adjusted 90% inhibitory concentration (PA-IC90): 166 ng/mL
[5]
  human CSF levels: ~10 ng/mL
[6]; 3 weeks
  times brain tissue concentration above the in vitro EC90: ~ 100
[6]; [14]
  concentration at 3 weeks: 412 ng/g
[6]; [15]
  concentration at 3 weeks: 26 ng/g
[6]; Tissue concentration, Cecum
  concentration at 3 weeks: 1370 ng/g
[6]; [16]
  concentration at 3 weeks: 58 ng/g
[6]; [17]
  concentration at 3 weeks: 583 ng/g
[6]; Tissue concentration, Duodenum
  concentration at 3 weeks: 569 ng/g
[6]; Tissue concentration, Ileum
  concentration at 3 weeks: 695 ng/g
[6]; [18]
  concentration at 3 weeks: 1280 ng/g
[6]; [19]
  concentration at 3 weeks: 975 ng/g
[6]; Tissue concentration, Jejunum
  concentration at 3 weeks: 643 ng/g
[6]; [20]
  concentration at 3 weeks: 23700 ng/g
[6]; Tissue concentration, Rectum
  concentration at 3 weeks: 773 ng/g
[6]; [21]
  concentration at 3 weeks: 288 ng/g
[6]; [22]
  concentration at 3 weeks: 58 ng/g
[6]; [23]
  concentration at 3 weeks: 975 ng/g
[6]; [24]
  concentration at 3 weeks: 695 ng/g
[7]
  median plasma levels during the treatment phase: 2400 ng/mL
  plasma concentration, individual macaques: 1040 ng/mL and 1050 ng/mL and 630 ng/mL and 480 ng/mL
[7]; [25]
  decline of plasma concentration below the PA-IC90 after the last injection: declined below the PA-IC90 two months later
  times plasma level above the PA-IC90 during treatment: 13
  concentration at 4 weeks: 835 ng/mL
[8]; rhesus monkey, intramuscular
  Kp at 4 weeks: 0.006
[8]; [26]
  concentration at 4 weeks: ~6 ng/mL
[8]; [27]
  concentration at 4 weeks: 5.95 ng/mL
[8]; [28]
  CSF, median (range): 5.95 (4.77–7.43) ng/mL
[9]
  plasma levels in humans: 2740 ng/mL
  apparent terminal elimination half-life: 39 to 80 days
[10]
  in vitro EC90: 0.34 ng/mL
[11]
  Rectal tissues, extracellular drug, median (range): 0.60 (0.25–2.65) ng/mg of tissue

## Nc1nc(=O)n([C@@H]2CS[C@H](COP(=O)(O)OP(=O)(O)OP(=O)(O)O)O2)cc1F [FTC-TP, emtricitabine triphosphate]
[12]
  Rectal tissues, intracellular, median (range): BLQ (BLQ-17)
[2]
  median concentration in PBMCs during the entire treatment period: 553 fmols/10^6 PBMCs
  median (range) concentration in PBMCs, period of full adherence: 573 (333–1528) fmols/10^6 PBMCs
  median (range) concentration in PBMCs, period of suboptimal adherence: 306 (undetectable-964) fmols/10^6 PBMCs
[2]; full adherence vs humans treated with 300 mg of FTC
  fold lower in PBMCs than in humans: approximately 3.6
[13]
  Panel F ratio dCTP/FTC-TP: 82.22 and 103.48
[1]; humans treated with 25 mg of TAF (TFV-DP) or 300 mg of FTC (FTC-TP) ref 12
  concentration in human PBMCs: 2,060 fmols/10^6 PBMCs
[1]; reviewer comment ref 12
  median peak concentration in human PBMCs: 5149 fmol/10^6 cells
[1]
  median trough concentration in human PBMCs: 2060 fmol/10^6 cells

## Nc1nc(=O)n([C@@H]2CS[C@H](CO)O2)cc1F [FTC, emtricitabine]
[8]; [27]
  concentration at 4 weeks: 2.36 ng/mL
[8]; [28]
  CSF, median (range): 2.36 (BLQ-2.65) ng/mL
[11]
  Rectal tissues, extracellular drug, median (range): 1.48 (0.22–2.16) ng/mg of tissue

## C[C@H](Cn1cnc2c(N)ncnc21)OCP(=O)(O)O [TFV, tenofovir]
[8]; [28]
  CSF, median (range): not detected and BLQ
[11]
  Rectal tissues, extracellular drug, median (range): 0.64 (0.18–0.87) ng/mg of tissue

## Cc1cc(/C=C/C#N)cc(C)c1Nc1ccnc(Nc2ccc(C#N)cc2)n1 [RPV, rilpivirine]
[4]
  protein-adjusted 90% inhibitory concentration (PA-IC90): 12 ng/mL
[5]
  human CSF levels: ~ 2 ng/ml
[6]; 3 weeks
  times brain tissue concentration above the in vitro EC90: ~ 500
  times median brain tissue concentration higher than that of CAB: 5.8
[6]; [14]
  concentration at 3 weeks: 773 ng/g
[6]; [15]
  concentration at 3 weeks: 340 ng/g
[6]; Tissue concentration, Cecum
  concentration at 3 weeks: 670 ng/g
[6]; [16]
  concentration at 3 weeks: 259 ng/g
[6]; [17]
  concentration at 3 weeks: 1770 ng/g
[6]; Tissue concentration, Duodenum
  concentration at 3 weeks: 666 ng/g
[6]; Tissue concentration, Ileum
  concentration at 3 weeks: 518 ng/g
[6]; [18]
  concentration at 3 weeks: 736 ng/g
[6]; [19]
  concentration at 3 weeks: 692 ng/g
[6]; Tissue concentration, Jejunum
  concentration at 3 weeks: 697 ng/g
[6]; [20]
  concentration at 3 weeks: 28800 ng/g
[6]; Tissue concentration, Rectum
  concentration at 3 weeks: 447 ng/g
[6]; [21]
  concentration at 3 weeks: 437 ng/g
[6]; [22]
  concentration at 3 weeks: 340 ng/g
[6]; [23]
  concentration at 3 weeks: 773 ng/g
[6]; [24]
  concentration at 3 weeks: 666 ng/g
[7]
  median plasma levels during the treatment phase: 108 ng/mL
  plasma concentration, individual macaques: 143 ng/mL and 152 ng/mL and 150 ng/mL and 153 ng/mL
[7]; [25]
  persistence in plasma after the last dose: 2 years
  concentration at 4 weeks: 151 ng/mL
[8]; rhesus monkey, intramuscular
  Kp at 4 weeks: 0.028
[8]; [26]
  concentration at 4 weeks: ~4 ng/mL
[8]; [27]
  concentration at 4 weeks: 4.06 ng/mL
[8]; rhesus monkey, in vivo
  times CSF-to-plasma ratio higher than for CAB: 4
[8]; [28]
  CSF, median (range): 4.06 (2.93–4.52) ng/mL
[9]
  plasma levels in humans: 97.5 ng/mL
  apparent terminal elimination half-life: 91 to 196 days
[10]
  in vitro EC90: 0.66 ng/mL
[11]
  Rectal tissues, extracellular drug, median (range): 0.45 (0.12–1.1) ng/mg of tissue
